Several values for one entry are separate records, joined by “and”; a condition that tells them apart may be missing. Equal values may be shown once. Toxic doses and inconclusive results are not listed. No stated cut-off is given here; in the data, active means T/C of 150% or more; inactive means T/C below 125%.
Test system: L1210 leukemia ip in BDF1 mice, survival T/C
Assay: NCI In Vivo Anticancer Drug Screen. Data for tumor model L1210 Leukemia (intraperitoneal) in B6D2F1 (BDF1) mice
Settings: endpoint: mean survival time, higher = longer survival
Procedure, shortened: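 Antitumor effect is assessed in tumor-bearing animals. Survival in the compound arm is compared with a vehicle-dosed control arm and expressed as their quotient.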

[1] = dose: 25.0 mg/kg/injection, schedule: Q01DX009 (ip), vehicle: saline
[2] = dose: 50.0 mg/kg/injection, schedule: Q01DX009 (ip), vehicle: saline
[3] = dose: 100.0 mg/kg/injection, schedule: Q01DX001 (ip), vehicle: saline
[4] = dose: 100.0 mg/kg/injection, schedule: Q04DX003 (ip), vehicle: saline
[5] = dose: 200.0 mg/kg/injection, schedule: Q01DX001 (ip), vehicle: saline
[6] = dose: 200.0 mg/kg/injection, schedule: Q01DX009 (ip), vehicle: saline
[7] = dose: 200.0 mg/kg/injection, schedule: Q04DX003 (ip), vehicle: saline
[8] = dose: 400.0 mg/kg/injection, schedule: Q01DX001 (ip), vehicle: saline
[9] = dose: 400.0 mg/kg/injection, schedule: Q04DX003 (ip), vehicle: saline
[10] = dose: 100.0 mg/kg/injection, schedule: Q01DX009 (ip), vehicle: saline with Tween-80
[11] = dose: 200.0 mg/kg/injection, schedule: Q01DX009 (ip), vehicle: saline with Tween-80
[12] = dose: 100.0 mg/kg/injection, schedule: Q04DX003 (ip), vehicle: saline with Tween-80
[13] = dose: 200.0 mg/kg/injection, schedule: Q04DX003 (ip), vehicle: saline with Tween-80
[14] = dose: 5.0 mg/kg/injection, schedule: Q01DX001 (ip), vehicle: saline
[15] = dose: 50.0 mg/kg/injection, schedule: Q01DX001 (ip), vehicle: saline
[16] = dose: 50.0 mg/kg/injection, schedule: Q01DX009 (ip), vehicle: Klucel (hydroxypropylcellulose) (HPC)
[17] = dose: 40.0 mg/kg/injection, schedule: Q04DX003 (ip), vehicle: saline
[18] = dose: 50.0 mg/kg/injection, schedule: Q01DX009 (ip), vehicle: saline with Tween-80
[19] = dose: 25.0 mg/kg/injection, schedule: Q01DX009 (ip), vehicle: saline with Tween-80
[20] = dose: 100.0 mg/kg/injection, schedule: Q01DX009 (ip), vehicle: saline

Measured: T/C

CC(C)NNC(=O)c1cccnc1
inactive: [1] 97 % of control and 108 % of control | [2] 94 % of control and 103 % of control | [3] 95 % of control | [4] 96 % of control | [5] 96 % of control | [6] 94 % of control | [7] 98 % of control | [8] 95 % of control | [9] 96 % of control

N#CCCCOc1cccc([N+](=O)[O-])c1
inactive: [10] 93 % of control | [11] 102 % of control

CCCCCCCCCCS(=O)(=O)CC(=O)O
inactive: dose: 100.0 mg/kg/injection, schedule: Q04DX003 (ip), vehicle: Klucel (hydroxypropylcellulose) (HPC) 100 % of control | [12] 100 % of control | dose: 200.0 mg/kg/injection, schedule: Q04DX003 (ip), vehicle: Klucel (hydroxypropylcellulose) (HPC) 90 % of control | [13] 98 % of control

Cc1cc(C)c(C(=O)c2no[n+]([O-])c2C(=O)c2c(C)cc(C)c(Br)c2C)c(C)c1Br
inactive: [13] 87 % of control

CC(=O)Oc1cccc2cc3cc(C)cc(OC(C)=O)c3c(OC(C)=O)c12
inactive: dose: 0.5 mg/kg/injection, schedule: Q01DX001 (ip), vehicle: saline 106 % of control | dose: 1.0 mg/kg/injection, schedule: Q01DX001 (ip), vehicle: saline 104 % of control | dose: 2.0 mg/kg/injection, schedule: Q01DX001 (ip), vehicle: saline 108 % of control | dose: 4.0 mg/kg/injection, schedule: Q01DX001 (ip), vehicle: saline 110 % of control | [14] 108 % of control | dose: 8.0 mg/kg/injection, schedule: Q01DX001 (ip), vehicle: saline 116 % of control

C/C(=C\CC1(C)C(=O)CCC2(C)C1CCCC21OCCO1)Sc1ccc(Cl)cc1 (centres undefined)
inactive: dose: 100.0 mg/kg/injection, schedule: Q04DX002 (ip), vehicle: Klucel (hydroxypropylcellulose) (HPC) 89 % of control | dose: 200.0 mg/kg/injection, schedule: Q04DX002 (ip), vehicle: Klucel (hydroxypropylcellulose) (HPC) 95 % of control | dose: 400.0 mg/kg/injection, schedule: Q04DX002 (ip), vehicle: Klucel (hydroxypropylcellulose) (HPC) 110 % of control

CCN(CCO)c1ccc(N=O)cc1
inactive: [14] 95 % of control | dose: 10.0 mg/kg/injection, schedule: Q01DX001 (ip), vehicle: saline 101 % of control | [15] 90 % of control

CN(C)C(=O)C(OCc1ccccc1)C(OCc1ccccc1)C(OCc1ccccc1)C(O)COCc1ccccc1 (centres undefined)
inactive: [16] 88 % of control | dose: 100.0 mg/kg/injection, schedule: Q01DX009 (ip), vehicle: Klucel (hydroxypropylcellulose) (HPC) 96 % of control | dose: 200.0 mg/kg/injection, schedule: Q01DX009 (ip), vehicle: Klucel (hydroxypropylcellulose) (HPC) 100 % of control

CC1(C)CC[N+]1(C)C
inactive: dose: 11.0 mg/kg/injection, schedule: Q04DX003 (ip), vehicle: saline 98 % of control and 104 % of control | dose: 12.0 mg/kg/injection, schedule: Q04DX003 (ip), vehicle: saline 96 % of control | dose: 16.0 mg/kg/injection, schedule: Q04DX003 (ip), vehicle: saline 94 % of control and 107 % of control | dose: 25.0 mg/kg/injection, schedule: Q04DX003 (ip), vehicle: saline 94 % of control and 104 % of control | [17] 102 % of control | dose: 50.0 mg/kg/injection, schedule: Q04DX003 (ip), vehicle: saline 110 % of control | dose: 60.0 mg/kg/injection, schedule: Q04DX003 (ip), vehicle: saline 92 % of control

CC(=O)Nc1ncc([N+](=O)[O-])s1
inactive: [18] 97 % of control | [10] 98 % of control | [11] 104 % of control

CCOP(=O)(CSc1ccccc1)OCC
inactive: [19] 93 % of control | dose: 25.0 mg/kg/injection, schedule: Q04DX002 (ip), vehicle: saline with Tween-80 107 % of control | [18] 100 % of control | dose: 50.0 mg/kg/injection, schedule: Q04DX002 (ip), vehicle: saline with Tween-80 107 % of control | dose: 100.0 mg/kg/injection, schedule: Q04DX002 (ip), vehicle: saline with Tween-80 86 % of control

CSC(=S)NNC(=O)c1ccc(C)cc1
inactive: dose: 20.0 mg/kg/injection, schedule: Q04DX003 (ip), vehicle: saline 96 % of control | [17] 98 % of control | dose: 75.0 mg/kg/injection, schedule: Q01DX001 (ip), vehicle: saline 98 % of control | dose: 75.0 mg/kg/injection, schedule: Q04DX003 (ip), vehicle: saline 105 % of control

CCSCCC#N
inactive: dose: 100.0 mg/kg/injection, schedule: Q04DX002 (ip), vehicle: saline 103 % of control | dose: 200.0 mg/kg/injection, schedule: Q04DX002 (ip), vehicle: saline 109 % of control

O=C1C2=C(c3ccccc31)C1c3ccccc3C(=O)C1(c1ccccc1)c1ccccc12 (centres undefined)
inactive: [3] 105 % of control | [5] 97 % of control | [8] 92 % of control

CC(=O)OCC(CCC(C)C)=C(C)C
inactive: [10] 98 % of control | [12] 97 % of control | [11] 98 % of control | [13] 92 % of control | dose: 400.0 mg/kg/injection, schedule: Q01DX009 (ip), vehicle: saline with Tween-80 102 % of control | dose: 400.0 mg/kg/injection, schedule: Q04DX003 (ip), vehicle: saline with Tween-80 92 % of control

O=C1CCCC/C1=N/Nc1ccccc1
inactive: dose: 5.0 mg/kg/injection, schedule: Q01DX009 (ip), vehicle: saline with Tween-80 93 % of control | dose: 5.0 mg/kg/injection, schedule: Q04DX003 (ip), vehicle: saline with Tween-80 98 % of control | dose: 10.0 mg/kg/injection, schedule: Q01DX009 (ip), vehicle: saline with Tween-80 102 % of control | dose: 10.0 mg/kg/injection, schedule: Q04DX003 (ip), vehicle: saline with Tween-80 102 % of control | dose: 20.0 mg/kg/injection, schedule: Q01DX009 (ip), vehicle: saline with Tween-80 95 % of control | dose: 20.0 mg/kg/injection, schedule: Q04DX003 (ip), vehicle: saline with Tween-80 99 % of control

NC(N)=NC(N)=Nc1ccc(Cl)c(Cl)c1
inactive: dose: 25.0 mg/kg/injection, schedule: Q01DX009 (ip), vehicle: Klucel (hydroxypropylcellulose) (HPC) 100 % of control | [1] 104 % of control | [16] 104 % of control | [2] 98 % of control | dose: 75.0 mg/kg/injection, schedule: Q01DX009 (ip), vehicle: Klucel (hydroxypropylcellulose) (HPC) 102 % of control | [20] 91 % of control | [12] 100 % of control

O=C(O)CCS
inactive: [15] 98 % of control

O=C(Cn1cc(F)c(=O)[nH]c1=O)c1cccs1
inactive: [20] 89 % of control | [4] 100 % of control | [6] 89 % of control | [7] 106 % of control | dose: 400.0 mg/kg/injection, schedule: Q01DX009 (ip), vehicle: saline 89 % of control | [9] 111 % of control

CCC(=O)c1ccc(OCC(O)CN2CCC(O)(c3ccccc3)CC2)cc1 (centres undefined)
inactive: [19] 98 % of control | dose: 25.0 mg/kg/injection, schedule: Q04DX003 (ip), vehicle: saline with Tween-80 97 % of control | [18] 89 % of control | dose: 50.0 mg/kg/injection, schedule: Q04DX003 (ip), vehicle: saline with Tween-80 105 % of control | [10] 95 % of control | [12] 100 % of control

COc1cc(O)c2c(c1)Cc1cc(C)cc(O)c1C2=O
inactive: dose: 12.5 mg/kg/injection, schedule: Q04DX002 (ip), vehicle: Klucel (hydroxypropylcellulose) (HPC) 93 % of control | dose: 25.0 mg/kg/injection, schedule: Q04DX002 (ip), vehicle: Klucel (hydroxypropylcellulose) (HPC) 93 % of control

From PubChem BioAssay AID248 (DTP/NCI, 2004)
